In paper PMC12006171, “Marsupial cathelicidins: characterization, antimicrobial activity and evolution in this unique mammalian lineage” (Frontiers in Immunology, 2025):
In brackets after ≈: the same amount, converted by molar mass. Read-outs that look alike come from different tables or passages of the source. Where a SMILES comes first, the peptide text is derived from it.

Assays:
Assay in all cases: microbe, parasite or virus in culture
Assay type in all cases: cell-based
[1] = test system: Pseudomonas aeruginosa clinical isolate - animal; conditions: clinical isolate - animal; read-out: MIC P. aeruginosa
Outline: (§1)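 MIC read visually as the lowest peptide concentration with no growth versus negative control, after 20–24 h at 35°C. Peptides were tested in duplicate 64-0.125μg/mL (final) in MHB or cation-supplemented MH II B, some with 10% lysed horse blood; inoculum 5 x 10^5 CFU/mL.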

[2] = test system: Staphylococcus aureus ATCC 29213; conditions: ATCC 29213; read-out: MIC S. aureus ATCC
Outline: as §1

[3] = test system: Staphylococcus aureus clinical isolate - animal; conditions: clinical isolate - animal; read-out: MIC S. aureus
Outline: as §1

[4] = test system: Escherichia coli clinical isolate - animal; conditions: clinical isolate - animal
Outline: as §1

[5] = test system: Escherichia coli ATCC 25922; conditions: ATCC 25922
Outline: as §1

[6] = test system: Pseudomonas aeruginosa ATCC 27853; conditions: ATCC 27853; read-out: MIC P. aeruginosa ATCC
Outline: as §1

[7] = test system: Streptococcus pneumoniae ATCC 49619; conditions: ATCC 49619; read-out: MIC S. pneumoniae ATCC
Method: (§2) Antimicrobial testing of 78 cathelicidin MPs was performed in two phases as outlined in Figure 1 . In phase I, 40 peptides (27 extant and 13 ancestral) were selected for testing based on rank (outlined above) and similarity to published marsupial cathelicidins with known antimicrobial activity ([33], [41]–[43]). These peptides were tested against nine bacteria (Staphylococcus aureus ATCC 29213 and clinical isolate, Escherichia coli ATCC 25922 and clinical isolate, Pseudomonas aeruginosa ATCC 27853 and clinical isolate, Streptococcus agalactiae ATCC 12386 and clinical isolate, Streptococcus pneumoniae ATCC 49619) and three fungi (Candida krusei ATCC 6258, Candida parapsilosis ATCC 22019, and Candida albicans clinical isolate). Details regarding these strains are available in Supplementary Table 4 . The antimicrobial activity of cathelicidins was determined as the minimum inhibitory concentration (MIC), which was the lowest concentration of cathelicidin that prevented visible bacterial or fungal growth, relative to the negative control. […] Minimum bactericidal concentration (MBC) and/or minimum fungicidal concentration (MFC) was conducted to determine microbicidal versus static action. Activity against S. aureus ATCC, E. coli ATCC, and Pseudomonas aeruginosa ATCC 27853 was examined in the presence of divalent cations to determine the impact of inhibitors.
(§3) Antimicrobial activity was determined using a broth microdilution susceptibility assay in 96 well polypropylene plates according to Clinical Laboratory Standards Institute guidelines M07-A and M26A as described previously ([33], [42], [43]). The bacterial and fungal isolates from humans and animals used in this study are outlined in Supplementary Table 4 . Only yeasts were included in the panel of fungi as they have been used in the susceptibility testing of eutherian ([3], [81]–[83]) and other marsupial cathelicidins previously ([33], [42], [43]). Cathelicidin mature peptides were solubilized in DMSO and serially diluted in duplicate from 128-0.25μg/mL in a final volume of 100µL. For bacteria, cathelicidins were diluted in Mueller Hinton Broth (MHB) with or without 10% lysed horse blood, and with (MH II B) or without (MHB) calcium and magnesium cations. For fungi, cathelicidins were diluted in Roswell Park Memorial Institute medium (RPMI)-1640 MOPS. Ampicillin or tetracycline were included as a positive control for Gram-positive and -negative bacteria respectively, while amphotericin B was used for fungi. A media-only negative control and growth control (no cathelicidin) were also included on each plate. Bacteria were sub-cultured on Muller Hinton agar (MHA) or sheep blood agar (BA), and fungi on Sabouraud dextrose agar (SAB), 20–24 hours prior to the test. Colonies were suspended in saline, the concentration adjusted to a 0.5 McFarland standard, and then diluted in media to a concentration of 1.0 x 10^6 cells/mL. Then, 100μL was added to each well of the cathelicidin dilution plate, giving a final inoculum density of 5 x 10^5 CFU/mL and cathelicidin concentration of 64-0.125μg/mL. Colony counts were performed on MHA/BA/SAB to confirm inoculum density. All plates were incubated at 35°C for 20–24 hours, depending on the strain.
(§4) Colonies were counted and compared to the colony count of the starting inoculum.

[8] = test system: Streptococcus agalactiae ATCC 12386; conditions: ATCC 12386; read-out: MIC S. agalactiae ATCC
Method: as §2, §3, §4

[9] = test system: Streptococcus agalactiae Clinical isolate - animal; conditions: clinical isolate - animal; read-out: MIC S. agalactiae
Method: as §2, §3, §4

[10] = read-out: MIC in the presence of cations E. coli ATCC

MIC [1] [µM]	MIC [2] [µM]	MIC [3] [µM]	MIC E. coli [4]	MIC in the presence of cations E. coli [4]	MIC ([5]; read-out: MIC E. coli ATCC) [µM]	MIC [6] [µM]	MIC [7] [µM]	MIC [8] [µM]	MIC [9] [µM]	MIC [4] [µM]	MIC [5, 10] [µM]	MIC E. coli ATCC [5]	MIC in the presence of cations E. coli ATCC [5]	SMILES	MBC E. coli [4]	MBC E. coli ATCC [5]
>13.6	>13.6	>13.6	13.6 (>13.6)^13.6 µM	13.6 (>13.6)^13.6 µM	>13.6	>13.6	>13.6	>13.6	>13.6	–	–	–	–	CC[C@H](C)[C@H](NC(=O)[C@H](CC(C)C)NC(=O)[C@H](CCCCN)NC(=O)[C@H](C)NC(=O)[C@H](CC(C)C)NC(=O)[C@H](CO)NC(=O)[C@H](CCCNC(=N)N)NC(=O)[C@@H](N)C(C)C)C(=O)N[C@@H](Cc1ccc(O)cc1)C(=O)N[C@@H](CCC(N)=O)C(=O)N[C@@H](CCCCN)C(=O)N[C@@H](Cc1ccc(O)cc1)C(=O)N[C@@H](CCCNC(=N)N)C(=O)N[C@@H](CCC(N)=O)C(=O)N[C@@H](CC(C)C)C(=O)N[C@@H](CC(C)C)C(=O)N[C@@H](CC(=O)O)C(=O)N[C@@H](CCCCN)C(=O)N[C@@H](Cc1ccc(O)cc1)C(=O)N[C@H](C(=O)N[C@H](C(=O)N[C@@H](CC(C)C)C(=O)N[C@@H](CCCNC(=N)N)C(=O)N[C@@H](CC(N)=O)C(=O)NCC(=O)N[C@@H](Cc1ccc(O)cc1)C(=O)N[C@@H](CCCCN)C(=O)N[C@@H](CCCCN)C(=O)N[C@@H](CC(C)C)C(=O)N[C@@H](CCC(N)=O)C(=O)N[C@@H](CC(=O)O)C(=O)N[C@H](C(=O)N[C@@H](Cc1ccccc1)C(=O)N[C@@H](CO)C(=O)N[C@@H](CCCCN)C(=O)N[C@@H](CCC(N)=O)C(=O)N[C@H](C(=O)NCC(=O)N[C@@H](CO)C(=O)O)C(C)C)[C@@H](C)CC)[C@@H](C)CC)[C@@H](C)O [MacroCath8] (H-VRSLAKLIYQKYRQLLDKYTILRNGYKKLQDIFSKQVGS-OH)	–	–
>14.5	>14.5	>14.5	–	14.5 µM	7.2 (≈ 31.7 µg/mL)	>14.5	>14.5	>14.5	>14.5	3.6 (≈ 15.8 µg/mL)	14.5	–	–	CC[C@H](C)[C@H](NC(=O)[C@H](CCCCN)NC(=O)[C@H](CC(C)C)NC(=O)CNC(=O)[C@H](CC(N)=O)NC(=O)[C@@H](NC(=O)[C@H](CCCNC(=N)N)NC(=O)[C@H](CCCNC(=N)N)NC(=O)[C@H](CCCNC(=N)N)NC(=O)[C@@H](NC(=O)[C@H](CO)NC(=O)[C@H](CC(N)=O)NC(=O)[C@H](CCCNC(=N)N)NC(=O)[C@H](CC(C)C)NC(=O)[C@H](CCCCN)NC(=O)[C@H](CCCCN)NC(=O)[C@H](C)NC(=O)[C@H](CCCCN)NC(=O)[C@H](CCC(=O)O)NC(=O)[C@H](CCCCN)NC(=O)[C@@H](NC(=O)[C@@H](NC(=O)[C@H](CC(=O)O)NC(=O)[C@H](Cc1c[nH]c2ccccc12)NC(=O)[C@H](CC(C)C)NC(=O)CNC(=O)[C@H](CCCNC(=N)N)NC(=O)[C@@H](N)CCCCN)[C@@H](C)O)C(C)C)[C@@H](C)CC)C(C)C)C(=O)NCC(=O)N[C@@H](C)C(=O)N[C@@H](C)C(=O)N[C@@H](CC(=O)O)C(=O)N[C@@H](CCC(N)=O)C(=O)N[C@H](C(=O)N1CCC[C@H]1C(=O)NCC(=O)N[C@@H](Cc1c[nH]cn1)C(=O)N[C@@H](CO)C(=O)N[C@@H](CC(C)C)C(=O)O)C(C)C [LahiCath4] (H-KRGLWDTVKEKAKKLRNSIRRRVNGLKIGAADQVPGHSL-OH)	14.5 µM (≈ 63.8 µg/mL)	14.5 µM (≈ 63.8 µg/mL)
>21.8	>21.8	>21.8	10.9 (10.9)^10.9 µM	10.9 (10.9)^10.9 µM	–	>21.8	>21.8	>21.8	>21.8	–	–	10.9 (10.9)^10.9 µM	10.9 (10.9)^10.9 µM	CC[C@H](C)[C@H](NC(=O)[C@H](CC(=O)O)NC(=O)[C@H](CCCNC(=N)N)NC(=O)[C@H](CC(C)C)NC(=O)[C@H](CCCCN)NC(=O)[C@H](CCCNC(=N)N)NC(=O)[C@H](Cc1ccc(O)cc1)NC(=O)[C@H](CCCCN)NC(=O)[C@H](CCC(=O)O)NC(=O)[C@H](CC(C)C)NC(=O)[C@H](CC(C)C)NC(=O)[C@@H](NC(=O)[C@H](CCCNC(=N)N)NC(=O)[C@H](Cc1ccc(O)cc1)NC(=O)[C@H](CCCCN)NC(=O)[C@H](CCC(N)=O)NC(=O)[C@H](Cc1ccc(O)cc1)NC(=O)[C@@H](NC(=O)[C@H](CC(C)C)NC(=O)[C@@H](N)CC(N)=O)[C@@H](C)CC)[C@@H](C)CC)C(=O)N[C@@H](Cc1ccccc1)C(=O)N[C@@H](CO)C(=O)NCC(=O)O [MAP6] (H-NLIYQKYRILLEKYRKLRDIFSG-OH)	10.9 (10.9)^10.9 µM	10.9 (10.9)^10.9 µM
>22.6	>22.6	>22.6	–	–	11.3 (≈ 31.9 µg/mL)	>22.6	>22.6	>22.6	>22.6	>22.6	22.6	–	–	CC[C@H](C)[C@H](NC(=O)CNC(=O)[C@H](CCC(=O)O)NC(=O)[C@H](CCC(N)=O)NC(=O)[C@@H](NC(=O)[C@H](CCCCN)NC(=O)[C@H](CC(N)=O)NC(=O)[C@H](CCCCN)NC(=O)[C@@H](NC(=O)[C@H](CC(C)C)NC(=O)[C@H](CC(N)=O)NC(=O)CNC(=O)[C@H](CC(C)C)NC(=O)[C@H](CCCCN)NC(=O)[C@H](CCCNC(=N)N)NC(=O)[C@H](CC(C)C)NC(=O)CN)[C@@H](C)CC)[C@@H](C)CC)C(=O)N[C@@H](CCC(=O)O)C(=O)N[C@@H](Cc1c[nH]cn1)C(=O)N[C@@H](Cc1ccccc1)C(=O)N[C@@H](Cc1ccccc1)C(=O)NCC(=O)N[C@@H](CCCNC(=N)N)C(=O)N[C@@H](CCCNC(=N)N)C(=O)O [SmcrCath6] (H-GLRKLGNLIKNKIQEGIEHFFGRR-OH)	–	22.6 µM (≈ 63.8 µg/mL)
